Laboratory results taken from paper PMC5725799, “Comparative binding properties of the tau PET tracers THK5117, THK5351, PBB3, and T807 in postmortem Alzheimer brains” (Alzheimer's Research & Therapy, 2017).
Values belong to the compound of their own block, whether it stands above or below them.

Key:
tau [1] = assay: ^11C-THK5351 autoradiography and competition on large frozen AD brain sections; format: binding, human; set-up: Total Binding / NSP Binding: unit not given here
Experimental: Adjacent sections were used for autoradiography with ^11C-THK5351, ^11C-PBB3, and ^18F-T807. The frozen sections were allowed to reach room temperature, incubated for 30 minutes at room temperature with ^11C-THK5351 (0.4–0.56 nM; specific activity 356–532 GBq/μmol) or ^11C-PBB3 (0.25–0.34 nM; specific activity 442–794 GBq/μmol) or for 55 minutes at room temperature with ^18F-T807 (0.04 nM; specific activity 281 GBq/μmol). We used 10 μM unlabeled THK5351, 10 μM unlabeled PBB3, and 10 μM unlabeled T807 to determine the extent of nonspecific binding for each tracer. The sections were rinsed three times for 5 minutes each with cold binding buffer, followed by a quick dip in cold distilled water. The sections were dried and exposed for 1 h (for ^11C-THK5351 and ^11C-PBB3) or for 3 h (^18 F-T807) on a phosphor imaging plate and then read using the BAS-2500 phosphor imager.
(§1) For all the autoradiography studies, the regions of interest were drawn manually on the autoradiogram using multigauge software and were used for the semiquantitative analyses. Photostimulated luminescence per square millimeter (PSL/mm^2) was transformed to picomoles per cubic millimeter using a transformation factor that took into account the resolution of the image, the pixel value for the concentration of ligand, and the thickness of the sections: (PSL/mm^2 value)/([pixel value per pmol] × [(resolution/1000)^2] × [cryosection thickness]/1000).

tau [2] = molecular target: tau (Homo sapiens, UniProt P10636); assay: Competition binding assay with ^3H-THK5351 in postmortem hippocampus brain homogenates; settings: vs ^3H-THK5351 1.5 nM, AD hippocampus homogenate; read-out: Ki2 (high-affinity site)
tau (Homo sapiens, UniProt P10636), sequence (P10636 623-695 limits assumed): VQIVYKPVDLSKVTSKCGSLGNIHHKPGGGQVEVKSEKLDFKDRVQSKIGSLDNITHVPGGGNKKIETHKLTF
Experimental: Postmortem brain tissues from three patients with AD and three healthy control subjects were used for the in vitro binding assays. All the brain tissue, which came from the Netherlands Brain Bank, had been homogenized in PBS containing a protease/phosphatase inhibitor (see Table 1).
After 2-h incubation at room temperature, the binding assay was terminated by filtration through glass fiber filters presoaked for at least 3 h in 0.3% polyethylenimine. To do so, the filters were rinsed and filtered three times using cold binding buffer, and then the radiation on the filter was quantified using a Beckman Coulter scintillation counter. The data for the regional binding distribution studies were analyzed using Prism version 7.0 software for Mac (GraphPad Software Inc., La Jolla, CA, USA), and two-way analysis of variance with multiple comparisons was performed.

tau [3] = assay: ^3H-THK5351 competition autoradiography with unlabeled THK5351, T807 and deprenyl; format: binding, human; settings: cortical areas
Experimental: Six adjacent sections from AD1 (see Table 1) were used for competition autoradiography of unlabeled THK5351, T807, and deprenyl. After reaching room temperature, the frozen sections were preincubated for 10 minutes with PBS (pH 7.4) and then incubated for 1 h at room temperature with ^3H-THK5351 (1.5 nM) in addition to 10 μM unlabeled THK5351; 10 μM unlabeled deprenyl; 10 μM unlabeled T807; 10 μM unlabeled THK5351 and 10 μM unlabeled deprenyl; 10 μM unlabeled T807 and 10 μM unlabeled deprenyl. The sections were rinsed three times in cold buffer for 5 minutes, followed by a quick dip in cold distilled water. Nonspecific binding was determined using 10 μM unlabeled THK5351 or 10 μM unlabeled THK5117. […]
as §1

[4] = AD1, Basal ganglia, vs Unlabelled T807
[5] = AD1, Basal ganglia, vs Unlabelled THK5351
[6] = AD1, Frontal cortex, vs Unlabelled T807
[7] = AD1, Frontal cortex, vs Unlabelled THK5351
[8] = AD1, Insula, vs Unlabelled T807
[9] = AD1, Insula, vs Unlabelled THK5351
[10] = AD1, Temporal cortex, vs Unlabelled T807
[11] = AD1, Temporal cortex, vs Unlabelled THK5351
[12] = AD2, Basal ganglia, vs Unlabelled T807
[13] = AD2, Basal ganglia, vs Unlabelled THK5351
[14] = AD2, Frontal cortex, vs Unlabelled T807
[15] = AD2, Frontal cortex, vs Unlabelled THK5351
[16] = AD2, Insula, vs Unlabelled T807
[17] = AD2, Insula, vs Unlabelled THK5351
[18] = AD2, Temporal cortex, vs Unlabelled T807
[19] = AD2, Temporal cortex, vs Unlabelled THK5351
[20] = AD3, Basal ganglia, vs Unlabelled T807
[21] = AD3, Basal ganglia, vs Unlabelled THK5351
[22] = AD3, Frontal cortex, vs Unlabelled T807
[23] = AD3, Frontal cortex, vs Unlabelled THK5351
[24] = AD3, Insula, vs Unlabelled T807
[25] = AD3, Insula, vs Unlabelled THK5351
[26] = AD3, Temporal cortex, vs Unlabelled T807
[27] = AD3, Temporal cortex, vs Unlabelled THK5351

% of specific binding (tau [1]; [4]): 41%
NSP Binding (tau [1]; [4]): 10866
Specific Binding (tau [1]; [4]): 7578
Total Binding (tau [1]; [4]): 18444
% of specific binding (tau [1]; [5]): 40%
NSP Binding (tau [1]; [5]): 7577
Specific Binding (tau [1]; [5]): 5118
Total Binding (tau [1]; [5]): 12694
% of specific binding (tau [1]; [6]): 24%
NSP Binding (tau [1]; [6]): 15579
Specific Binding (tau [1]; [6]): 4789
Total Binding (tau [1]; [6]): 20368
% of specific binding (tau [1]; [7]): 40%
NSP Binding (tau [1]; [7]): 8920
Specific Binding (tau [1]; [7]): 5917
Total Binding (tau [1]; [7]): 14837
% of specific binding (tau [1]; [8]): 25%
NSP Binding (tau [1]; [8]): 13255
Specific Binding (tau [1]; [8]): 4421
Total Binding (tau [1]; [8]): 17677
% of specific binding (tau [1]; [9]): 33%
NSP Binding (tau [1]; [9]): 8376
Specific Binding (tau [1]; [9]): 4085
Total Binding (tau [1]; [9]): 12461
% of specific binding (tau [1]; [10]): 14%
NSP Binding (tau [1]; [10]): 14662
Specific Binding (tau [1]; [10]): 2328
Total Binding (tau [1]; [10]): 16990
% of specific binding (tau [1]; [11]): 29%
NSP Binding (tau [1]; [11]): 8202
Specific Binding (tau [1]; [11]): 3386
Total Binding (tau [1]; [11]): 11587
% of specific binding (tau [1]; [12]): 38%
NSP Binding (tau [1]; [12]): 11830
Specific Binding (tau [1]; [12]): 7177
Total Binding (tau [1]; [12]): 19008
% of specific binding (tau [1]; [13]): 68%
NSP Binding (tau [1]; [13]): 6390
Specific Binding (tau [1]; [13]): 13566
Total Binding (tau [1]; [13]): 19956
% of specific binding (tau [1]; [14]): 18%
NSP Binding (tau [1]; [14]): 14824
Specific Binding (tau [1]; [14]): 3344
Total Binding (tau [1]; [14]): 18167
% of specific binding (tau [1]; [15]): 69%
NSP Binding (tau [1]; [15]): 6755
Specific Binding (tau [1]; [15]): 15381
Total Binding (tau [1]; [15]): 22136
% of specific binding (tau [1]; [16]): 28%
NSP Binding (tau [1]; [16]): 13363
Specific Binding (tau [1]; [16]): 5076
Total Binding (tau [1]; [16]): 18439
% of specific binding (tau [1]; [17]): 59%
NSP Binding (tau [1]; [17]): 6886
Specific Binding (tau [1]; [17]): 9948
Total Binding (tau [1]; [17]): 16834
% of specific binding (tau [1]; [18]): 39%
NSP Binding (tau [1]; [18]): 13589
Specific Binding (tau [1]; [18]): 8683
Total Binding (tau [1]; [18]): 22271
% of specific binding (tau [1]; [19]): 59%
NSP Binding (tau [1]; [19]): 6673
Specific Binding (tau [1]; [19]): 9437
Total Binding (tau [1]; [19]): 16110
% of specific binding (tau [1]; [20]): 47%
NSP Binding (tau [1]; [20]): 10872
Specific Binding (tau [1]; [20]): 9821
Total Binding (tau [1]; [20]): 20693
% of specific binding (tau [1]; [21]): 38%
NSP Binding (tau [1]; [21]): 6733
Specific Binding (tau [1]; [21]): 4207
Total Binding (tau [1]; [21]): 10939
% of specific binding (tau [1]; [22]): 38%
NSP Binding (tau [1]; [22]): 14792
Specific Binding (tau [1]; [22]): 8959
Total Binding (tau [1]; [22]): 23751
% of specific binding (tau [1]; [23]): 48%
NSP Binding (tau [1]; [23]): 7079
Specific Binding (tau [1]; [23]): 6431
Total Binding (tau [1]; [23]): 13509
% of specific binding (tau [1]; [24]): 29%
NSP Binding (tau [1]; [24]): 13574
Specific Binding (tau [1]; [24]): 5447
Total Binding (tau [1]; [24]): 19021
% of specific binding (tau [1]; [25]): 37%
NSP Binding (tau [1]; [25]): 6903
Specific Binding (tau [1]; [25]): 3972
Total Binding (tau [1]; [25]): 10875
% of specific binding (tau [1]; [26]): 34%
NSP Binding (tau [1]; [26]): 12673
Specific Binding (tau [1]; [26]): 6479
Total Binding (tau [1]; [26]): 19153
% of specific binding (tau [1]; [27]): 36%
NSP Binding (tau [1]; [27]): 6717
Specific Binding (tau [1]; [27]): 3813
Total Binding (tau [1]; [27]): 10529
Compound: [11CH3]Nc1ccc(-c2ccc3cc(OC[C@H](O)CF)ccc3n2)cn1 [^11C-THK5351, (S)-1-fluoro-3-(2-(6-([^11C]methylamino)pyridin-3-yl)quinolin-6-yloxy)propan-2-ol]

Ki (tau [2]): 16 nM
^3H-THK5351 binding displaced (tau [3]): 70–80%
Compound: CNc1ccc(-c2ccc3cc(OC[C@H](O)CF)ccc3n2)cn1 [THK5351]
